Results reported in patent US11167012B2, “Peptide inhibition of CCR3-mediated diseases or conditions” (The Board of Trustees of the University of Illinois, priority 2015, dated 2021).
Several values for one entry are separate records, joined by “and”; a condition that tells them apart may be missing. Equal values may be shown once. Entries after “also recorded” stand apart in the source; their conditions may differ. Where a SMILES comes first, the peptide text is derived from it. The star is where a group is joined. X1 = NC(=O)CCOCCOCCOCCOCCOCCOCCOCCOCCOCCOCCOCCOCCOCCOCCOCCOCCOCCOCCOCCOCCOCCOCCOCCOCCOCCOCCOCCOCCN*

What was measured:
ERK1/2 phosphorylation = experiment: Signal transduction assay, Western blotting of phospho-ERK1/2 in AML14.3D10-CCR3 cells; assay type: cell-based, human
Description: Phospho-ERK was detected using a specific antibody. The membrane was stripped and reprobed for total ERK1/2 as loading control. Immunoblots were quantified by densitometry using ImageJ. PD: PD184161, MEK inhibitor.
AML14.3D10-CCR3 cells were serum starved for 16 hours. Cells were pretreated with vehicle control, R3-2-1 or PD184161 for 30 minutes at 37° C., and subsequently stimulated with 8 nM CCL5 or CCL11 for 2 minutes. Stimulation was stopped by adding ice cold PBS. Cells were centrifuged and lysed in RIPA buffer containing protease and phosphatase inhibitors. Cell lysates were resolved on a 12% SDS-PAGE gel (10 μg/lane), transferred to PVDF membrane and blocked in 5% milk. Phospho-ERK1/2 was detected using rabbit monoclonal antibody (clone D13.14.4E, Cell Signaling Technology, Danvers, Mass.) and secondary goat anti-rabbit IgG-HRP (Santa Cruz Biotechnology, Dallas, Tex.). As a loading control, the membrane was subsequently stripped and re-probed with an antibody against total ERK1/2 (clone 127F5, Cell Signaling Technology).
Concurrent to ligand binding and activation, CCR3 undergoes ligand-induced desensitization and internalization (Zimmermann, et al. (1999) J. Biol. Chem. 274:12611-12618). As part of the desensitization process, CCR3 is degraded. This is thought to occur via β-arrestin recruitment to phosphorylated CCR3 and subsequent sequestration of the receptor into endosomal compartments, eventually leading to degradation. β-arrestin signaling is central in this process and is characterized by a late activation of signaling pathways such as MAPK/ERK1/2, in contrast to acute activation by G proteins. […] Therefore, the R3-2-1 peptide is a biased antagonist in that it inhibits the […] of CCL11 ligand-induced β-arrestin signaling, whereas the small molecule inhibitors are unbiased antagonists.

[1] = tested on: eosinophil recruitment into the esophageal epithelium; experiment: Mouse model of EoE, oxazalone-challenged L2-IL5 transgenic mice; assay type: in vivo; conditions: i.v., 24 hours after last OXA challenge
Description: Skin sensitized L2-IL5 transgenic mice received topical esophageal oxazalone (OXA) challenges by gavage (i.e.) on days 5, 8 and 12 (FIG. 5A). R3-2-1 peptide nanoparticles, control peptide (R3-2-3) or CCR3 inhibitor UCB35625 (UCB) were given immediately before on days 5, 8, 10 and 12 (FIG. 5A). Esophageal eosinophilia was assessed 24 hours after the last OXA challenge and treatment (day 13). […] Error bars represent SEM.
Mice were treated i.v. with R3-2-1 peptide, scrambled R3-2-3 control peptide ([…]-PEG27-NH2; SEQ ID NO:24), or the allosteric non-selective CCR3 inhibitor, UCB35625. Eosinophil recruitment into the esophageal epithelium was assessed 24 hours after the last OXA challenge by counting eosinophils in 9 high power fields (hpf) covering the total esophagus or 3 hpf covering the distal esophagus.

[2] = tested on: eosinophil recruitment into the lung airspaces; experiment: Triple antigen (DRA) allergic mouse asthma model; assay type: in vivo
Description: Treatment of mice with CCR3 R3-2-1 peptide nanoparticles, scrambled R3-2-3 peptide nanoparticles or vehicle controls was administered i.v. by retro-orbital injection starting on day 11, one day before intranasal DRA allergen challenges on days 12-14 to assess its effect on inhibiting the recruitment of eosinophils into the lung airspaces and airways. Blood, bronchoalveolar lavage (BAL) fluid and lung tissue were harvested on day 15.
In the triple antigen driven allergic mouse model, mice are sensitized and airway-challenged with a combination of aeroallergens including Dust mite, Ragweed and Aspergillus sp. (DRA; Goplen, et al. (2009) J. Allergy Clin. Immunol. 123:925-932). This model recapitulates many of the pathologic features of human asthma, including eosinophil recruitment into the lung and airspaces, eosinophil degranulation, increased expression of Th2 cytokines, airway hyperreactivity (AHR), and airway remodeling (goblet cell metaplasia and mucus overproduction), and airway smooth muscle hyperplasia and subepithelial fibrosis. Using this model, the effectiveness of R3-2-1 in blocking allergen-induced eosinophil recruitment into the airways and development of airway pathologies in mice was evaluated. It was determined whether systemic (i.v.) administration of R3-2-1 nanoparticles has the capacity to inhibit eotaxin-mediated eosinophil recruitment into the airways. Mice subjected to the triple antigen (DRA) protocol were treated with R3-2-1, scrambled peptide (R3-2-3) and vehicle controls via i.v. administration following antigen sensitization, 24 hours prior to the first allergen challenge on Day 11 of the protocol (FIG. 7), and for i.v. routes, repeated before each subsequent allergen challenge.

[3] = Dynamic light scattering of peptide solution; assay type: physicochemical; conditions: aqueous environment; 0.4 mg/ml in PBS
Excerpt: As indicated herein, the CCR3 peptide analog self-assembles in aqueous medium into highly homogenous nanoparticles. Dynamic light scattering analyses indicate that the radius of the instant nanoparticles is in the range of 1 to 100 nm, more specifically about 8 nm (FIG. 1). Based upon the size and composition, the nanoparticles facilitate translocation of the peptide through the plasma membrane and protect the peptide from degradation in the blood/serum or other body fluids. Accordingly, this invention also provides a nanoparticle composition containing the CC3 peptide analog as well as methods of using the nanoparticle composition to antagonize CCR3 and in the treatment of inflammatory diseases such as asthma, and eosinophilic esophagitis.

IC50 for inhibition of total number of eosinophils recruited into the lung airspaces ([2]; i.v.): 8.16 mg/kg
hydrodynamic radius of self-assembled nanospheres [3]: approximately 8 nm
SMILES: CC[C@H](C)[C@H](NC(=O)[C@H](Cc1c[nH]c2ccccc12)NC(=O)[C@H](Cc1ccccc1)NC(=O)[C@@H]1CCCN1C(=O)[C@H](CC(C)C)NC(=O)[C@@H](NC(=O)[C@@H](NC(=O)[C@H](CC(C)C)NC(=O)[C@H](Cc1ccccc1)NC(=O)[C@H](CC(C)C)NC(=O)[C@@H](N)CC(C)C)C(C)C)[C@@H](C)O)C(=O)N[C@@H](Cc1c[nH]cn1)C(=O)N[C@@H](Cc1ccc(O)cc1)C(=O)N[C@H](C(=O)N[C@@H](CCCNC(=N)N)C(=O)NCC(=O)N[C@@H](Cc1c[nH]cn1)C(=O)N[C@@H](CC(N)=O)C(=O)N[C@@H](Cc1c[nH]c2ccccc12)C(=O)N[C@H](C(=O)N[C@@H](Cc1ccccc1)C(=O)NCC(=O)N[C@@H](Cc1c[nH]cn1)C(=O)N[C@@H](CC(=O)O)C(=O)N[C@@H](CC(=O)O)C(=O)N[C@@H](CC(=O)O)C(=O)NCCOCCOCCOCCOCCOCCOCCOCCOCCOCCOCCOCCOCCOCCOCCOCCOCCOCCOCCOCCOCCOCCOCCOCCOCCOCCOCCOCCOCCC(N)=O)C(C)C)C(C)C [Peptide R3-2-1] (H-LLFLVTLPFWIHYVRGHNWVFGHDDD-X1; N-terminus assumed)
acute (2-5 minutes) and late (30 minutes) phase phosphorylation of ERK1/2 (ERK1/2 phosphorylation; 10 μM, CCL11-induced): inhibits only acute phosphorylation of ERK1/2
inhibition of ERK1/2 phosphorylation induced by RANTES and eotaxin (ERK1/2 phosphorylation; 2 and 10 μM, 8 nM CCL5 or CCL11 for 2 minutes): inhibits activation of the MAPK pathway; also recorded: attenuated
eosinophil recruitment into distal and total esophageal epithelium [1]: significantly blocked eosinophil recruitment; also recorded: significantly reduced eosinophil recruitment
% Inhibition of eosinophil recruitment (BAL fluid) ([2]; 3 mg/kg i.v.): 19.54 ± 14.81%
% Inhibition of eosinophil recruitment (BAL fluid) ([2]; 6 mg/kg i.v.): 44.24 ± 9.33%
% Inhibition of eosinophil recruitment (BAL fluid) ([2]; 9 mg/kg i.v.): 53.03 ± 10.82%
% Inhibition of eosinophil recruitment (BAL fluid) ([2]; 12 mg/kg i.v., compared to vehicle and R3-2-3 controls): 69.3% and 69.33 ± 4.20%
total number of eosinophils recruited into the lung airspaces ([2]; i.v., BAL fluid): significantly inhibits
